Source: patent publication US20240174603A1 (Rappta Therapeutics Oy, priority 2021, published 2024)

system: LNCaP cells; assay: LNCaP cell viability assay (MTS); assay type: cell-based; conditions: Homo sapiens, LNCaP cell line, 48 hours
Outline: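 LNCaP cells (5000/well) treated 24 h after plating with compound at 1–80 µM for 48 h. Relative cell number read by MTS; GI50 from four-parameter variable-slope log(inhibitor) fit with bottom constrained to zero.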

Row | SMILES | GI50 [µM]
1 | O=S(=O)(NC(CN1CCCC1)c1ccc(Cl)cc1)c1ccc(OC(F)(F)F)cc1 (stereo not shown) [Compound 181, N-(1-(4-chlorophenyl)-2-(pyrrolidin-1-yl)ethyl)-4-(trifluoromethoxy)benzenesulfonamide] | 51.4
2 | O=S(=O)(NC(CN1CCCCC1)c1ccc(Cl)cc1)c1ccc(OC(F)(F)F)cc1 (stereo not shown) [Compound 183, N-(1-(4-chlorophenyl)-2-(piperidin-1-yl)ethyl)-4-(trifluoromethoxy)benzenesulfonamide] | 33.8

same assay, conditions: Homo sapiens, LNCaP, 48 h, LNCaP cell line

Row | SMILES | GI50 [µM]
3 | CN(C)CC(NS(=O)(=O)c1ccc(OC(F)(F)F)c(N)c1)c1ccc(Cl)c(Cl)c1 (stereo not shown) [Compound 176, 3-amino-N-(1-(3,4-dichlorophenyl)-2-(dimethylamino)ethyl)-4-(trifluoromethoxy)benzenesulfonamide] | 31.4
4 | O=S(=O)(NC(CN1CCCC1)c1ccc(Cl)c(Cl)c1)c1ccc(OC(F)(F)F)cc1 (stereo not shown) [Compound 182, N-(1-(3,4-dichlorophenyl)-2-(pyrrolidin-1-yl)ethyl)-4-(trifluoromethoxy)benzenesulfonamide] | 24.5
5 | CN1CCN(CC(NS(=O)(=O)c2ccc(OC(F)(F)F)cc2)c2ccc(Cl)cc2)CC1 (stereo not shown) [Compound 184, N-(1-(4-chlorophenyl)-2-(4-methylpiperazin-1-yl)ethyl)-4-(trifluoromethoxy)benzenesulfonamide] | 23.4
6 | CN1CCN(CC(NS(=O)(=O)c2ccc(OC(F)(F)F)cc2)c2ccc(Cl)c(Cl)c2)CC1 (stereo not shown) [Compound 185, N-(1-(3,4-dichlorophenyl)-2-(4-methylpiperazin-1-yl)ethyl)-4-(trifluoromethoxy)benzenesulfonamide] | 12.6
7 | CN(C)CC(NS(=O)(=O)c1ccc(C(=O)Nc2ccccc2)cc1)c1ccc(Cl)c(Cl)c1 (stereo not shown) [Compound 186, 4-(N-(1-(3,4-dichlorophenyl)-2-(dimethylamino)ethyl)sulfamoyl)-N-phenylbenzamide] | 48.2
8 | CN(C)CC(NS(=O)(=O)c1ccc(C(=O)NC2CCCCC2)cc1)c1ccc(Cl)c(Cl)c1 (stereo not shown) [Compound 187, N-cyclohexyl-4-(N-(1-(3,4-dichlorophenyl)-2-(dimethylamino)ethyl)sulfamoyl)benzamide] | 53.6
9 | CN(C)CC(NS(=O)(=O)c1ccc(Nc2ccccc2)cc1)c1ccc(Cl)c(Cl)c1 (stereo not shown) [Compound 188, N-(1-(3,4-dichlorophenyl)-2-(dimethylamino)ethyl)-4-(phenylamino)benzenesulfonamide] | 13.6
10 | CN(C)CC(NS(=O)(=O)c1ccc(Oc2ccccc2)cc1)c1cccc(C(F)(F)F)c1 (stereo not shown) [Compound 189, N-(2-(dimethylamino)-1-(3-(trifluoromethyl)phenyl)ethyl)-4-phenoxybenzenesulfonamide] | 12.1
11 | CN(C)CC(NS(=O)(=O)c1ccc(Oc2ccccc2)cc1)c1ccc(Cl)cc1 (stereo not shown) [Compound 190, N-(1-(4-chlorophenyl)-2-(dimethylamino)ethyl)-4-phenoxybenzenesulfonamide] | 11.8
12 | CN(C)CC(NS(=O)(=O)c1ccc(OC(F)(F)F)c(Cl)c1)c1cccc(C(F)(F)F)c1 (stereo not shown) [Compound 191, 3-chloro-N-(2-(dimethylamino)-1-(3-(trifluoromethyl)phenyl)ethyl)-4-(trifluoromethoxy)benzenesulfonamide] | 16.5
13 | CN(C)CC(NS(=O)(=O)c1ccc(OC(F)(F)F)c(Cl)c1)c1ccc(Cl)cc1 (stereo not shown) [Compound 192, 3-chloro-N-(1-(4-chlorophenyl)-2-(dimethylamino)ethyl)-4-(trifluoromethoxy)benzenesulfonamide] | 14.4
14 | CN(C)CC(NS(=O)(=O)c1ccc(Oc2ccc(C(F)(F)F)cc2)cc1)c1cccc(C(F)(F)F)c1 (stereo not shown) [Compound 193, N-(2-(dimethylamino)-1-(3-(trifluoromethyl)phenyl)ethyl)-4-(4-(trifluoromethyl)phenoxy)benzenesulfonamide] | 19.6
15 | CN(C)CC(NS(=O)(=O)c1ccc(Oc2ccc(C(F)(F)F)cc2)cc1)c1ccc(Cl)cc1 (stereo not shown) [Compound 194, N-(1-(4-chlorophenyl)-2-(dimethylamino)ethyl)-4-(4-(trifluoromethyl)phenoxy)benzenesulfonamide] | 12.2
16 | CN(C)CC(NS(=O)(=O)c1ccc(OC(F)(F)F)c([N+](=O)[O-])c1)c1cccc(C(F)(F)F)c1 (stereo not shown) [Compound 205, N-(2-(dimethylamino)-1-(3-(trifluoromethyl)phenyl)ethyl)-3-nitro-4-(trifluoromethoxy)benzenesulfonamide] | 2.27
17 | CN(C)CC(NS(=O)(=O)c1ccc(OC(F)(F)F)c([N+](=O)[O-])c1)c1ccc(Cl)cc1 (stereo not shown) [Compound 206, N-(1-(4-chlorophenyl)-2-(dimethylamino)ethyl)-3-nitro-4-(trifluoromethoxy)benzenesulfonamide] | 1.77
18 | CN(C)CC(NS(=O)(=O)c1ccc(OCC2CC2)cc1)c1ccc(Cl)c(Cl)c1 (stereo not shown) [Compound 207, 4-(cyclopropylmethoxy)-N-(1-(3,4-dichlorophenyl)-2-(dimethylamino)ethyl)benzenesulfonamide] | 21.8
19 | CC(C)Oc1ccc(S(=O)(=O)NC(CN(C)C)c2ccc(Cl)c(Cl)c2)cc1 (stereo not shown) [Compound 208, N-(1-(3,4-dichlorophenyl)-2-(dimethylamino)ethyl)-4-isopropoxybenzenesulfonamide] | 25.4
20 | CN(C)CC(NS(=O)(=O)c1ccc(OC2CCCCC2)cc1)c1ccc(Cl)c(Cl)c1 (stereo not shown) [Compound 209] | 11.1
21 | CN(C)CC(NS(=O)(=O)c1ccc(OC2CCCC2)cc1)c1ccc(Cl)c(Cl)c1 (stereo not shown) [Compound 210, 4-(cyclopentyloxy)-N-(1-(3,4-dichlorophenyl)-2-(dimethylamino)ethyl)benzenesulfonamide] | 12.5
22 | CN(C)CC(NS(=O)(=O)c1ccc(Oc2ccccn2)cc1)c1ccc(Cl)c(Cl)c1 (stereo not shown) [Compound 211, N-(1-(3,4-dichlorophenyl)-2-(dimethylamino)ethyl)-4-(pyridin-2-yloxy)benzenesulfonamide] | 75
23 | CCc1ccc(S(=O)(=O)NC(CN(C)C)c2ccc(Cl)c(Cl)c2)cc1 (stereo not shown) [Compound 212, N-(1-(3,4-dichlorophenyl)-2-(dimethylamino)ethyl)-4-ethylbenzenesulfonamide] | 34.6
24 | CC(C)c1ccc(S(=O)(=O)NC(CN(C)C)c2ccc(Cl)c(Cl)c2)cc1 (stereo not shown) [Compound 213, N-(1-(3,4-dichlorophenyl)-2-(dimethylamino)ethyl)-4-isopropylbenzenesulfonamide] | 25.2
25 | CCCCc1ccc(S(=O)(=O)NC(CN(C)C)c2ccc(Cl)c(Cl)c2)cc1 (stereo not shown) [Compound 214, 4-butyl-N-(1-(3,4-dichlorophenyl)-2-(dimethylamino)ethyl)benzenesulfonamide] | 11.3
26 | CCCCCc1ccc(S(=O)(=O)NC(CN(C)C)c2ccc(Cl)c(Cl)c2)cc1 (stereo not shown) [Compound 215, N-(1-(3,4-dichlorophenyl)-2-(dimethylamino)ethyl)-4-pentylbenzenesulfonamide] | 7.5
27 | CN(C)CC(NS(=O)(=O)c1ccc(C2=CCOCC2)cc1)c1ccc(Cl)c(Cl)c1 (stereo not shown) [Compound 216, N-(1-(3,4-dichlorophenyl)-2-(dimethylamino)ethyl)-4-(3,6-dihydro-2H-pyran-4-yl)benzenesulfonamide] | 8.18
28 | CN(C)CC(NS(=O)(=O)c1ccc(Cl)c(F)c1)c1ccc(Cl)c(Cl)c1 (stereo not shown) [Compound 217, 4-chloro-N-(1-(3,4-dichlorophenyl)-2-(dimethylamino)ethyl)-3-fluorobenzenesulfonamide] | 49.5
